From the supplement of paper PMC10883282
± gives the standard deviation of the averaged measurements.

How the values were obtained:
Assay in all cases: relative viability vs DMSO control (72 h) (fraction); higher = more viable cells
A204 = test system: A204
Outline: (§1)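 Sarcoma cell lines were grown in 384-well plates seeded toward 80–90% confluence and exposed 24 h later to serially diluted compound. After 72 h at 37 °C and 5% CO2, with 0.1% DMSO vehicle and a 5 µM positive control on the plates, ATPLite was read. Relative viability, given as percent growth averaged over up to triplicate wells, was rescaled so that 1 is full and 0 is none.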

G401 = test system: G401
Outline: as §1

HS729 = test system: HS729
Outline: as §1

KHOS-240S = test system: KHOS-240S
Outline: as §1

MES-SA = test system: MES-SA
Outline: as §1

SK-ES-1 = test system: SK-ES-1
Outline: as §1

SK-LMS-1 = test system: SK-LMS-1
Outline: as §1

SW1353 = test system: SW1353
Outline: as §1

SW684 = test system: SW684
Outline: as §1

SW872 = test system: SW872
Outline: as §1

SW982 = test system: SW982
Outline: as §1

SYO-1 = test system: SYO-1
Outline: as §1

C[C@H]1Oc2cc(cnc2N)-c2c(nn(C)c2C#N)CN(C)C(=O)c2ccc(F)cc21 [Lorlatinib]
Conditions | relative viability
A204, 0.00017 µM | 1.08 ± 0.016
A204, 0.00051 µM | 1.11 ± 0.024
A204, 0.00152 µM | 1.1 ± 0.054
A204, 0.00457 µM | 1.13 ± 0.024
A204, 0.01372 µM | 1.1 ± 0.027
A204, 0.04115 µM | 1.07 ± 0.083
A204, 0.1235 µM | 1.05 ± 0.039
A204, 0.3704 µM | 1.05 ± 0.034
A204, 1.111 µM | 1.01 ± 0.046
A204, 3.333 µM | 0.981 ± 0.044
A204, 10 µM | 0.988 ± 0.049
G401, 0.00017 µM | 1.05 ± 0.047
G401, 0.00051 µM | 1.05 ± 0.037
G401, 0.00152 µM | 1.04 ± 0.011
G401, 0.00457 µM | 1.03 ± 0.016
G401, 0.01372 µM | 1.06 ± 0.013
G401, 0.04115 µM | 1.02 ± 0.063
G401, 0.1235 µM | 0.968 ± 0.0083
G401, 0.3704 µM | 0.984 ± 0.025
G401, 1.111 µM | 1 ± 0.052
G401, 3.333 µM | 1.01 ± 0.047
G401, 10 µM | 0.916 ± 0.063
HS729, 0.00017 µM | 1.06 ± 0.025
HS729, 0.00051 µM | 0.956 ± 0.017
HS729, 0.00152 µM | 0.897 ± 0.039
HS729, 0.00457 µM | 0.958 ± 0.077
HS729, 0.01372 µM | 0.878 ± 0.019
HS729, 0.04115 µM | 0.886 ± 0.024
HS729, 0.1235 µM | 0.829 ± 0.027
HS729, 0.3704 µM | 0.899 ± 0.068
HS729, 1.111 µM | 0.803 ± 0.089
HS729, 3.333 µM | 0.781 ± 0.037
HS729, 10 µM | 0.662 ± 0.039
KHOS-240S, 0.00017 µM | 1.06 ± 0.045
KHOS-240S, 0.00051 µM | 1.08 ± 0.052
KHOS-240S, 0.00152 µM | 1.07 ± 0.051
KHOS-240S, 0.00457 µM | 1.07 ± 0.096
KHOS-240S, 0.01372 µM | 1.06 ± 0.044
KHOS-240S, 0.04115 µM | 1.01 ± 0.069
KHOS-240S, 0.1235 µM | 1.01 ± 0.072
KHOS-240S, 0.3704 µM | 1.01 ± 0.011
KHOS-240S, 1.111 µM | 0.969 ± 0.023
KHOS-240S, 3.333 µM | 0.915 ± 0.087
KHOS-240S, 10 µM | 0.865 ± 0.038
MES-SA, 0.00017 µM | 0.955 ± 0.024
MES-SA, 0.00051 µM | 0.987 ± 0.037
MES-SA, 0.00152 µM | 0.943 ± 0.04
MES-SA, 0.00457 µM | 0.929 ± 0.013
MES-SA, 0.01372 µM | 0.922 ± 0.026
MES-SA, 0.04115 µM | 0.923 ± 0.033
MES-SA, 0.1235 µM | 0.911 ± 0.027
MES-SA, 0.3704 µM | 0.919 ± 0.023
MES-SA, 1.111 µM | 0.897 ± 0.026
MES-SA, 3.333 µM | 0.892 ± 0.058
MES-SA, 10 µM | 0.879 ± 0.052
SK-ES-1, 0.00017 µM | 1.02 ± 0.04
SK-ES-1, 0.00051 µM | 1.03 ± 0.081
SK-ES-1, 0.00152 µM | 1.06 ± 0.021
SK-ES-1, 0.00457 µM | 1.05 ± 0.044
SK-ES-1, 0.01372 µM | 1.01 ± 0.045
SK-ES-1, 0.04115 µM | 1.01 ± 0.02
SK-ES-1, 0.1235 µM | 1.023 ± 0.0029
SK-ES-1, 0.3704 µM | 1.03 ± 0.021
SK-ES-1, 1.111 µM | 1 ± 0.047
SK-ES-1, 3.333 µM | 0.89 ± 0.016
SK-ES-1, 10 µM | 0.571 ± 0.058
SK-LMS-1, 0.00017 µM | 1.12 ± 0.06
SK-LMS-1, 0.00051 µM | 1.095 ± 0.0097
SK-LMS-1, 0.00152 µM | 1.081 ± 0.0044
SK-LMS-1, 0.00457 µM | 1.09 ± 0.057
SK-LMS-1, 0.01372 µM | 1.1 ± 0.049
SK-LMS-1, 0.04115 µM | 1.09 ± 0.082
SK-LMS-1, 0.1235 µM | 1.07 ± 0.071
SK-LMS-1, 0.3704 µM | 1.02 ± 0.038
SK-LMS-1, 1.111 µM | 1.02 ± 0.041
SK-LMS-1, 3.333 µM | 1 ± 0.052
SK-LMS-1, 10 µM | 0.933 ± 0.015
SW684, 0.00017 µM | 1.13 ± 0.053
SW684, 0.00051 µM | 1.2 ± 0.059
SW684, 0.00152 µM | 1.17 ± 0.031
SW684, 0.00457 µM | 1.17 ± 0.081
SW684, 0.01372 µM | 1.17 ± 0.039
SW684, 0.04115 µM | 1.185 ± 0.0046
SW684, 0.1235 µM | 1.15 ± 0.059
SW684, 0.3704 µM | 1.09 ± 0.084
SW684, 1.111 µM | 1.14 ± 0.051
SW684, 3.333 µM | 1.12 ± 0.09
SW684, 10 µM | 1.12 ± 0.02
SW872, 0.00017 µM | 1.08 ± 0.012
SW872, 0.00051 µM | 1.05 ± 0.034
SW872, 0.00152 µM | 1.04 ± 0.044
SW872, 0.00457 µM | 1.04 ± 0.07
SW872, 0.01372 µM | 1 ± 0.081
SW872, 0.04115 µM | 0.956 ± 0.04
SW872, 0.1235 µM | 0.921 ± 0.079
SW872, 0.3704 µM | 0.838 ± 0.083
SW872, 1.111 µM | 0.798 ± 0.045
SW872, 3.333 µM | 0.718 ± 0.05
SW872, 10 µM | 0.658 ± 0.034
SW982, 0.00017 µM | 1.012 ± 0.001
SW982, 0.00051 µM | 1.04 ± 0.04
SW982, 0.00152 µM | 1.02 ± 0.028
SW982, 0.00457 µM | 1.04 ± 0.017
SW982, 0.01372 µM | 1.03 ± 0.033
SW982, 0.04115 µM | 1.03 ± 0.048
SW982, 0.1235 µM | 0.895 ± 0.061
SW982, 0.3704 µM | 0.826 ± 0.087
SW982, 1.111 µM | 0.762 ± 0.026
SW982, 3.333 µM | 0.768 ± 0.054
SW982, 10 µM | 0.64 ± 0.054
SW1353, 0.00017 µM | 1.04 ± 0.027
SW1353, 0.00051 µM | 1.06 ± 0.026
SW1353, 0.00152 µM | 1.027 ± 0.01
SW1353, 0.00457 µM | 0.992 ± 0.035
SW1353, 0.01372 µM | 0.985 ± 0.022
SW1353, 0.04115 µM | 1 ± 0.04
SW1353, 0.1235 µM | 0.976 ± 0.045
SW1353, 0.3704 µM | 0.889 ± 0.068
SW1353, 1.111 µM | 0.851 ± 0.037
SW1353, 3.333 µM | 0.839 ± 0.046
SW1353, 10 µM | 0.792 ± 0.023
SYO-1, 0.00017 µM | 0.99 ± 0.018
SYO-1, 0.00051 µM | 0.982 ± 0.04
SYO-1, 0.00152 µM | 0.985 ± 0.038
SYO-1, 0.00457 µM | 0.966 ± 0.039
SYO-1, 0.01372 µM | 0.966 ± 0.024
SYO-1, 0.04115 µM | 0.921 ± 0.017
SYO-1, 0.1235 µM | 0.873 ± 0.037
SYO-1, 0.3704 µM | 0.844 ± 0.06
SYO-1, 1.111 µM | 0.768 ± 0.069
SYO-1, 3.333 µM | 0.737 ± 0.087
SYO-1, 10 µM | 0.66 ± 0.077
